Reference: US9006243B2, “HIV inhibiting 6-substituted pyrimidines” (Janssen R&D Ireland, priority 2006, dated 2015)
Read-outs that look alike come from different tables or passages of the source.

Legend:
Assay in all cases: microbe, parasite or virus in culture
[1] = system: HIV strain IIIB (wild type)
Description: Compounds of the invention were tested for their potency against wild type virus and clinically isolated HIV strains harboring one or more mutations associated with resistance to reverse transcriptase inhibitors. Antiviral activity was evaluated using a cellular assay performed according to the following procedure.
The human T-cell line MT4 was engineered with Green Fluorescent Protein (GFP) and a HIV-specific promoter, HIV-1 long terminal repeat (LTR). This cell line, designated MT4 LTR-EGFP, can be used for the in vitro evaluation of anti-HIV activity of investigational compounds. In HIV-1 infected cells, the Tat protein is produced, which upregulates the LTR promotor and eventually leads to stimulation of the GFP reporter production, allowing to measure ongoing HIV-infection fluorometrically.
Analogously, MT4 cells were engineered with GFP and the constitutional cytomegalovirus (CMV) promotor. […] Cytotoxic investigational compounds reduce GFP levels of mock-infected MT4 CMV-EGFP cells.
The ratio of CC50 to EC50 is defined as the selectivity index (SI) and is an indication of the selectivity of the anti-HIV activity of the inhibitor. The ultimate monitoring of HIV-1 infection and cytotoxicity was done using a scanning microscope. Image analysis allows very sensitive detection of viral infection. Measurements were done before cell necrosis, which usually takes place about five days after infection, in particular measurements were performed three days after infection.
The columns IIIB, L100I, etc. in the table list the pEC50 (−log EC50) values against various strains IIIB, L100I, etc.; pSI lists the −log SI values.
Strain IIIB is wild type HIV strain.

HIV strain K103N + Y181C = type: cell-based, HIV-1; details: for K103N + Y181C pEC50 (−log EC50): HIV strain K103N + Y181C, MT4 LTR-EGFP cells, three days after infection
From the text: (§1) Image analysis allows very sensitive detection of viral infection.

HIV strain L100I + K103N = type: cell-based, HIV-1; details: HIV strain L100I + K103N; MT4 LTR-EGFP cells; three days after infection
From the text: as §1

HIV strain Y181C = type: cell-based, HIV-1; details: for Y181C pEC50 (−log EC50): HIV strain Y181C, MT4 LTR-EGFP cells, three days after infection
From the text: as §1

[2] = molecular target: HIV strain MDR (L100I, K103N, Y181C, E138G, V179I, L2214F, V278V/I and A327A/V in HIV reverse transcriptase); type: cell-based, HIV-1; details: for MDR pEC50 (−log EC50): MDR HIV strain (multiple RT mutations), MT4 LTR-EGFP cells, three days after infection
From the text: as §1
“MDR” refers to a strain that contains mutations L100I, K103N, Y181C, E138G, V179I, L2214F, V278V/I and A327A/V in HIV reverse transcriptase.

[3] = wild type HIV strain IIIB, MT4 LTR-EGFP cells, GFP fluorescence, three days after infection

Row | Compound | IIIB pEC50 (−log EC50) [1] | K103N + Y181C pEC50 (−log EC50) (HIV strain K103N + Y181C) | L100I + K103N pEC50 (−log EC50) (HIV strain L100I + K103N) | Y181C pEC50 (−log EC50) (HIV strain Y181C) | MDR pEC50 (−log EC50) [2] | IIIB pEC50 (−log EC50) [1, 3] | EC50 ([1]; Human immunodeficiency virus 1, IIIB, 72 h, read-out: IIIB pEC50 (−log EC50) (converted)) | EC50 (HIV strain K103N + Y181C; Human immunodeficiency virus 1, 72 h, read-out: K103N + Y181C pEC50 (−log EC50) (converted)) | EC50 (HIV strain Y181C; Human immunodeficiency virus 1, 72 h, read-out: Y181C pEC50 (−log EC50) (converted)) | EC50 ([2]; Human immunodeficiency virus 1, 72 h, read-out: MDR pEC50 (−log EC50) (converted))
1 | Cc1cc(C=CC#N)cc(C)c1Nc1cc(CN2CCOCC2)nc(Nc2ccc(C#N)cc2)n1 (mixture of isomers) [Compound 12] | 8.62 | 6.78 | 6.50 | 7.28 | 5.57 | – | – | – | – | –
2 | Cc1cc(C=CC#N)cc(C)c1Nc1cc(CNCC2CC2)nc(Nc2ccc(C#N)cc2)n1 (mixture of isomers) [Compound 14] | – | 7.76 | 7.00 | 7.85 | 5.67 | 8.52 | – | – | – | –
3 | COCCNCc1cc(Nc2c(C)cc(C=CC#N)cc2C)nc(Nc2ccc(C#N)cc2)n1 (mixture of isomers) [Compound 15] | – | 7.86 | 7.42 | 7.89 | 5.55 | 8.54 | – | – | – | –
4 | Cc1cc(C=CC#N)cc(C)c1Nc1cc(CNCC2COC(C)(C)O2)nc(Nc2ccc(C#N)cc2)n1 (mixture of isomers) [Compound 16] | 8.54 | 7.61 | 7.06 | 7.60 | 5.64 | – | – | – | – | –
5 | Cc1cc(C=CC#N)cc(C)c1Nc1cc(CNCCc2ccc(S(N)(=O)=O)cc2)nc(Nc2ccc(C#N)cc2)n1 (mixture of isomers) [Compound 17] | – | 7.04 | 6.41 | 7.01 | 5.56 | 7.80 | – | – | – | –
6 | CON(C)Cc1cc(Nc2c(C)cc(C=CC#N)cc2C)nc(Nc2ccc(C#N)cc2)n1 (mixture of isomers) [Compound 18] | – | 7.79 | 7.48 | 8.06 | 6.33 | 9.05 | – | – | – | –
7 | Cc1cc(C=CC#N)cc(C)c1Nc1cc(Cn2ccnc2)nc(Nc2ccc(C#N)cc2)n1 (mixture of isomers) [Compound 19] | – | 6.97 | 6.83 | 7.68 | 5.32 | 8.48 | – | – | – | –
8 | Cc1cc(C=CC#N)cc(C)c1Nc1cc(CNCCc2ccccn2)nc(Nc2ccc(C#N)cc2)n1 (mixture of isomers) [Compound 20] | – | 6.96 | 6.33 | 6.99 | 5.30 | 8.46 | – | – | – | –
9 | CC(=O)NCCNCc1cc(Nc2c(C)cc(C=CC#N)cc2C)nc(Nc2ccc(C#N)cc2)n1 (mixture of isomers) [Compound 22] | – | 7.02 | 6.35 | 7.09 | 5.50 | 7.93 | – | – | – | –
10 | COCC(C)NCc1cc(Nc2c(C)cc(C=CC#N)cc2C)nc(Nc2ccc(C#N)cc2)n1 (mixture of isomers) [Compound 23] | – | 7.78 | 6.98 | 7.72 | 5.67 | 8.80 | – | – | – | –
11 | Cc1cc(C=CC#N)cc(C)c1Nc1cc(CNCc2ccccn2)nc(Nc2ccc(C#N)cc2)n1 (mixture of isomers) [Compound 25] | – | 7.30 | – | 7.03 | 5.75 | 7.63 | – | – | – | –
12 | Cc1cc(C=CC#N)cc(C)c1Nc1cc(CNCc2ccco2)nc(Nc2ccc(C#N)cc2)n1 (mixture of isomers) [Compound 26] | – | 8.07 | – | 7.62 | 5.57 | 8.43 | – | – | – | –
13 | Cc1cc(/C=C/C#N)cc(C)c1Nc1cc(CNCc2cccnc2)nc(Nc2ccc(C#N)cc2)n1 [Compound 27] | – | – | – | – | – | – | 3.8 nM | 3.09 nM | 16.2 nM | 1170 nM
